Measured values from US20260234165A1, “MACROCYCLIC COMPOUNDS, PREPARATION METHOD THEREFOR, AND USE THEREOF” (GENFLEET THERAPEUTICS (SHANGHAI) INC., priority 2004, published 2026).
Read-outs that look alike come from different tables or passages of the source.

Columns and labels:
Type in all cases: cell-based, human
[1] = system: p-ERK in AsPC-1 cells (KRAS G12D mutation); assay: Cell p-ERK assay (HTRF) in AsPC-1 cells; details: AsPC-1 cells, 3 h compound incubation, HTRF p-ERK T202/Y204, read-out: AsPC-1 p-ERK IC50
In short: (§1)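 AsPC-1 (10000/well) or NCI-H441 (20000/well) cells were seeded in RPMI-1640 with 10% FBS, grown overnight, then exposed to 3.16-fold compound dilutions (0.1% DMSO) for 3 h at 37 °C. Lysates were read for phospho-ERK T202/Y204 by HTRF; IC50 came from four-parameter fits of inhibition versus DMSO and blank wells.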

NCI-H441 cells = assay: 3D cell proliferation assay (CellTiter Glo-3D), NCI-H441; details: medium with 2% FBS, read-out: H441 AP IC50
In short: (§2)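 Luminescence read-out (CellTiter-Glo 3D) after 5-day compound exposure at 37 °C, 5% CO2. Cells: NCI-H441 and AsPC-1, 800/well, RPMI-1640 + 2% FBS, 0.1% DMSO final. IC50 by four-parameter fit of % inhibition against log concentration.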

[2] = system: p-ERK in NCI-H441 cells (KRAS G12V mutation); assay: Cell p-ERK assay (HTRF) in NCI-H441 cells; details: NCI-H441 cells, 3 h compound incubation, HTRF p-ERK T202/Y204, read-out: H441 p-ERK IC50
In short: as §1

[3] = system: AsPC-1 cells (KRAS G12D mutation); assay: 3D cell proliferation assay (CellTiter Glo-3D), AsPC-1; details: medium with 2% FBS, read-out: AsPC-1 AP IC50
In short: as §2

[4] = 3D cell proliferation (CellTiter Glo-3D)
[5] = Homo sapiens, NCI-H441, 3D cell proliferation (CellTiter Glo-3D)
[6] = Homo sapiens, ASPC1, 3D cell proliferation (CellTiter Glo-3D)

Row | IC50 [1] [nM] | IC50 (NCI-H441 cells; [4]) [nM] | IC50 [2] [nM] | IC50 [3, 4] [nM] | IC50 ([1]; Homo sapiens, ASPC1, 3 h) [nM] | IC50 (NCI-H441 cells; [5]) [nM] | IC50 ([2]; Homo sapiens, NCI-H441, 3 h) [nM] | IC50 [3, 6] [nM] | Compound
1 | 9.45 | 4.75 | 3.67 | 6.28 |  |  |  |  | CO[C@@H](C)c1ncc(OCCN2CCOC3(CC3)C2)cc1-c1c2c3cc(ccc3n1CC(F)(F)F)-c1csc(n1)C[C@H](NC(=O)[C@H]1[C@H](C)[C@@H]1C)C(=O)N1CCC[C@H](N1)C(=O)OCC1(CC1)C2 (atropisomer, axis not shown; (Ra)) [Compound Z380, (1r,2R,3S)—N-((3′S,4′S,Z)—(Ra)-2′-(5-(2-(4-oxa-7-azaspiro[2,5]octan-7-yl)ethoxy)-2-((S)-1-methoxyethyl)pyridin-3-yl)-5′,7′-dioxo-1′-(2,2,2-trifluoroethyl)spiro[cyclopropane-1,10′-8-oxa-2(4,2)-thiazola-1(5,3)-indola-6(1,3)-pyridazinacycloundecaphan]-4-yl)-2,3-dimethylcyclopropane-1-carboxamide]
2 | 7.39 | 6.04 | 2.79 | 5.52 |  |  |  |  | CCn1c(-c2cc(C#CCN3CC(F)C3)cnc2[C@H](C)OC)c2c3cc(ccc31)-c1csc(n1)C[C@H](NC(=O)[C@H]1[C@H](C)[C@@H]1C)C(=O)N1CCC[C@H](N1)C(=O)OCC(C)(C)C2 (atropisomer, axis not shown; (Ra)) [Compound Z383-1, (1r,2R,3S)—N-((6^3S,4S,Z)—(Ra)-1^2-(5-(3-(3-fluoroazetidin-1-yl)prop-1-yn-1-yl)-2-((S)-1-methoxyethyl)pyridin-3-yl)-1^1-ethyl-10,10-dimethyl-5,7-dioxo-6^1,6^2,6^3,6^4,6^5,6^6-hexahydro-1^1H-8-oxa-2(4,2)-thiazola-1(5,3)-indola-6(1,3)-pyridazinacycloundecaphane-4-yl)-2,3-dimethylcyclopropane-1-carboxamide]
3 |  |  |  |  | 69.4 | 18.1 | 17.5 | 104 | CCn1c(-c2cc(N3CCN(C)CC3)cnc2[C@H](C)OC)c2c3cc(ccc31)-c1csc(n1)C[C@H](Nc1nnc3ccc(C)cn13)C(=O)N1CCC[C@H](N1)C(=O)OCC(C)(C)C2 (atropisomer, axis not shown; (Ra)) [Compound Z434, (6^3S,4S,Z)-1^1-ethyl-(Ra)-1^2-(2-((S)-1-methoxyethyl)-5-(4-methylpiperazin-1-yl)pyridin-3-yl)-10,10-dimethyl-4-((6-methyl-[1,2,4]triazolo[4,3-a]pyridin-3-yl)amino)-6^1,6^2,6^3,6^4,6^5,6^6-hexahydro-1^1H-8-oxa-2(4,2)-thiazola-1(5,3)-indola-6(1,3)-pyridazinacycloundecaphane-5,7-dione]
4 |  |  |  |  | 26.2 | 14.3 | 6.3 | 73.4 | CCn1c(-c2cc(N3CCN(C)CC3)cnc2[C@H](C)OC)c2c3cc(ccc31)-c1csc(n1)C[C@H](Nc1nnc3ccccn13)C(=O)N1CCC[C@H](N1)C(=O)OCC(C)(C)C2 (atropisomer, axis not shown; (Ra)) [Compound Z460, (6^3S,4S,Z)-4-([1,2,4]triazolo[4,3-a]pyridin-3-ylamino)-1^1-ethyl-(Ra)-1^2-(2-((S)-1-methoxyethyl)-5-(4-methylpiperazin-1-yl)pyridin-3-yl)-10-O-dimethyl-6^1,6^2,6^3,6^4,6^5,6^6-hexahydro-1^1H-8-oxa-2(4,2)-thiazola-1(5,3)-indola-6(1,3)-pyridazinacycloundecaphane-5,7-dione]
5 |  |  |  |  | 1.6 | 1.37 | 1.12 | 2.72 | CO[C@@H](C)c1ncc(OCCN2CCOC3(CC3)C2)cc1-c1c2c3cc(ccc3n1C(C)C)-c1csc(n1)C[C@H](NC(=O)[C@H]1[C@H](C)[C@@H]1C)C(=O)N1CCC[C@H](N1)C(=O)OCC1(CC1)C2 (atropisomer, axis not shown; (Ra)) [Compound Z462, (1r,2R,3S)—N-((3′S,4′S,Z)-2′-(5-(2-(4-oxa-7-azaspiro[2,5]octan-7-yl)ethoxy)-(Ra)-2-((S)-1-methoxyethyl)pyridin-3-yl)-1′-isopropyl 5′,7′-dioxospiro[cyclopropane-1,10′-8-oxa-2(4,2)-thiazola-1(5,3)-indola-6(1,3)-pyridazinacycloundecaphan]-4′-yl)-2,3-dimethylcyclopropane-1-carboxamide]
6 | 3.03 | 6.32 | 1.9 | 15 |  |  |  |  | CCn1c(-c2cc(OCC3(N4CCCOCC4)CC3)cnc2[C@H](C)OC)c2c3cc(ccc31)-c1csc(n1)C[C@H](NC(=O)[C@H]1[C@H](C)[C@@H]1C)C(=O)N1CCC[C@H](N1)C(=O)OCC1(CC1)C2 (atropisomer, axis not shown; (Ra)) [Compound Z464, (1r,2R,3,S)—N-((3′S,4′S,Z)—(Ra)-2′-(5-((1-(1,4-oxazepan-4-yl)cyclopropyl)methoxy)-2-((S)-1-methoxyethyl)pyridin-3-yl)-1′-ethyl-5′,7′-dioxospiro[cyclopropane-1,10′-8-oxa-2(4,2)-thiazola-1(5,3)-indola-6(1,3)-pyridazinacycloundecaphan]-4′-yl)-2,3-dimethylcyclopropane-1-carboxamide]
7 | 0.11 |  | 0.35 |  |  | 0.09 |  | 0.24 | CCn1c(-c2cc(OCCN3CCS(=O)(=O)CC3)cnc2[C@H](C)OC)c2c3cc(ccc31)-c1csc(n1)C[C@H](NC(=O)[C@H]1[C@H](C)[C@@H]1C)C(=O)N1CCC[C@H](N1)C(=O)OCC(C)(C)C2 (atropisomer, axis not shown; (Ra)) [Compound Z469, (0r,2R,3S)—N-((6^3S,4S,Z)—(Ra)-1^2-(5-(2-(1,1-dioxidothiomorpholino)ethoxy)-2-((S)-1-methoxyethyl)pyridin-3-yl)-1^1-ethyl-10,10-dimethyl-5,7-dioxo-6^1,6^2,6^3,6^4,6^5,6^6-hexahydro-1^1H-8-oxa-2(4,2)-thiazola-1(5,3)-indola-6(1,3)-pyridazinacycloundecaphane-4-yl)-2,3-dimethylcyclopropane-1-carboxamide]
8 |  |  |  |  | 1.3 | 0.59 | 0.67 | 3.19 | CCn1c(-c2cc(CC3(N4CCS(=O)(=O)CC4)CC3)cnc2[C@H](C)OC)c2c3cc(ccc31)-c1csc(n1)C[C@H](NC(=O)[C@H]1[C@H](C)[C@@H]1C)C(=O)N1CCC[C@H](N1)C(=O)OCC(C)(C)C2 (atropisomer, axis not shown; (Ra)) [Compound Z484, (1r,2R,3S)—N-((6^3S,4S,Z)—(Ra)-1^2-(5-((1-(1,1-dioxidothiomorpholino)cyclopropyl)methyl)-2-((S)-1-methoxyethyl)pyridin-3-yl)-1^1-ethyl-10,10-dimethyl-5,7-dioxo-6^1,6^2,6^3,6^4,6^5,6^6-hexahydro-1^1H-8-oxa-2(4,2)-thiazola-1(5,3)-indola-6(1.3)-pyridazinacycloundecaphane-4-yl)-2,3-dimethylcyclopropane-1-carboxamide]
9 |  |  |  |  | 0.73 | 0.42 | 0.35 | 0.96 | CCn1c(-c2cc(CCN3CCS(=O)(=O)CC3)cnc2[C@H](C)OC)c2c3cc(ccc31)-c1csc(n1)C[C@H](NC(=O)[C@H]1[C@H](C)[C@@H]1C)C(=O)N1CCC[C@H](N1)C(=O)OCC(C)(C)C2 (atropisomer, axis not shown; (Ra)) [Compound Z485, (1r,2R,3S)—N-((6^3S,4S,Z)—(Ra)-1^2-(5-(2-(1,1-dioxidothiomorpholino)ethyl)-2-((S)-1-methoxyethyl)pyridin-3-yl)-11-ethyl-10,10-dimethyl-5,7-dioxo-6^1,6^2,6^3,6^4,6^5,6^6-hexahydro-1^1H-8-oxa-2(4,2)-thiazola-1(5,3)-indola-6(1,3)-pyridazinacycloundecaphane-4-yl)-2,3-dimethylcyclopropane-1-carboxamide]
10 |  |  |  |  | 10.9 | 5.58 | 4.06 | 8.99 | CCn1c(-c2cc(OCC3(CN4CCCOCC4)CC3)cnc2[C@H](C)OC)c2c3cc(ccc31)-c1csc(n1)C[C@H](NC(=O)[C@H]1[C@H](C)[C@@H]1C)C(=O)N1CCC[C@H](N1)C(=O)OCC1(CC1)C2 (atropisomer, axis not shown; (Ra)) [Compound Z498]
11 |  |  |  |  | 0.35 | 0.22 | 0.22 | 0.52 | [2H]C([2H])([2H])C1(C([2H])([2H])[2H])COC(=O)[C@@H]2CCCN(N2)C(=O)[C@@H](NC(=O)[C@H]2[C@H](C)[C@@H]2C)Cc2nc(cs2)-c2ccc3c(c2)c(c(-c2cc(OCCN4CCOC5(CC5)C4)cnc2[C@H](C)OC)n3CC)C1 (atropisomer, axis not shown; (Ra)) [Compound Z501, (1r,2R,3S)—N-((6^3S,4S,Z)-1^1-ethyl-(Ra)-1^2-(5-(2-(4-oxa-7-azaspiro[2.5]octan-7-yl)ethoxy)-2-((S)-1-methoxyethyl)pyridin-3-yl)-10,10-bis(methyl-d3)-5,7-dioxo-6^1,6^2,6^3,6^4,6^5,6^6-hexahydro-11H-8-oxo-2(4,2)-thiazola-1(5,3)-indola-6(1,3)-pyridazinacycloundecaphane-4-yl)-2,3-dimethylcyclopropane-1-carboxamide]
